Results on 25 compounds are retold here after patent publication US20180206498A1, “SUBSTITUTED HETEROARYL CARBOXYLIC ACID HYDRAZIDES OR SALTS THEREOF AND USE THEREOF TO INCREASE STRESS TOLERANCE IN PLANTS” (Bayer CropScience Aktiengesellschaft, priority 2015, published 2018).

Each structure is given as a SMILES string. Where only a bound is given, the exact number is not on record here.

For assay [1], the system named is Zea mays. Briefly: Drought stress in vivo analysis, efficacy EF from visually scored damage intensity. As to conditions: scored after recovery phase. The method, then: (§1) Seeds of monocotyledonous and dicotyledonous crop plants were sown in sandy loam in wood-fiber or plastic pots, covered with soil or sand and cultivated in a greenhouse under good growth conditions. The trial plants were treated at the early leaf stage (BBCH10-BBCH13). To assure uniform water supply before commencement of stress, the potted plants were supplied with water by dam irrigation prior to substance application. The inventive compounds formulated in the form of wettable powders (WP) were sprayed onto the green parts of the plants as an aqueous suspension at an equivalent water application rate of 600 I/ha with addition of 0.2% wetting agent (e.g. agrotin). Substance application was followed immediately by stress treatment of the plants. For this purpose, the wood-fiber pots were transferred in plastic inserts in order to prevent them from subsequently drying out too quickly. Drought Stress was Induced by Gradual Drying Out Under the Following Conditions: “Day”: 14 hours with illumination at ˜26-30° C. “Night”: 10 hours without illumination at ˜18-20° C. The duration of the respective stress phases was guided mainly by the condition of the stressed control plants. It was ended (by re-irrigating and transfer to a greenhouse with good growth conditions) as soon as irreversible damage was observed on the stressed control plants. The end of the stress phase was followed by an about 4-7-day recovery phase, during which the plants were once again kept under good growth conditions in a greenhouse. The duration of the recovery phase was guided mainly by when the trial plants had attained a state which enabled visual scoring of potential effects, and is therefore variable. Once this juncture was reached, the intensities of damage were scored visually in comparison to untreated, unstressed controls of the same age. The damage intensity was at first assessed in percent. These values were then used to calculate the efficacy of the test compounds by the following formula: [formula] EF: Efficacy DIs: Damage intensity of the stressed control plants DIh: Damage intensity of the stressed plants treated with test compound The values reported in tables A-1 to A-3 below are mean values from at least one trial with at least two repeats. The effects of selected compounds of the general formula (I) under drought stress on various crop plants were measured. BRSNS=Brassica napus ZEAMX=Zea mays TRZAS=Triticum aestivum

Assay [2] deals with Brassica napus. The description is as above. As to conditions: spray 250 g/ha, scored after recovery phase. The method, then: as §1
Assay [3] deals with Triticum aestivum. The assay is described as above. The conditions noted are these: scored after recovery phase. The method, then:
as §1

Assay [4] relates to Brassica napus. The experiment in a line: Drought stress in vivo analysis Part B, appearance vs stressed control plants in categories. Details: key: 0: no positive effect; +: slight positive effect; ++: clear positive effect; +++: strong positive effect. The method, then:
(§2) Seeds of monocotyledonous and dicotyledonous crop plants were sown in sandy loam in plastic pots, covered with soil or sand and cultivated in a greenhouse under good growth conditions. The test plants are treated at the early leaf stage (BBCH10-BBCH13). To assure uniform water supply before commencement of stress, the potted plants were supplied with water by dam irrigation prior to substance application. The inventive compounds were first formulated as wettable powders (WP) or dissolved in a solvent mixture. The further dilution was effected with water supplemented with 0.2% wetting agent (e.g. agrotin). The finished spray liquor was sprayed onto the green parts of the plant at an equivalent water application rate of 600 I/ha. Substance application was followed immediately by stress treatment of the plants. Drought Stress was Induced by Gradual Drying Out Under the Following Conditions: “Day”: 14 hours with illumination at […]-30° C. “Night”: 10 hours without illumination at 18-20° C. The duration of the respective stress phases was guided mainly by the condition of the stressed control plants. It was ended (by re-irrigating and transfer to a greenhouse with good growth conditions) as soon as irreversible damage was observed on the stressed control plants. The end of the stress phase was followed by an about 4-7-day recovery phase, during which the plants were once again kept under good growth conditions in a greenhouse. The duration of the recovery phase was guided mainly by when the trial plants had attained a state which enabled visual scoring of potential effects, and was therefore variable. Once this juncture had been reached, the appearance of the plants treated with test substances was recorded in comparison to the stressed control plants by the following categories: [table] In order to rule out any influence on the effects observed by any fungicidal or insecticidal action of the test compounds, it was additionally ensured that the tests proceeded without fungal infection or insect infestation. The values reported in tables B-1 and […] below are mean values of the results from at least three repeats. Effects of selected compounds of the general formula (I) under drought stress according to the following tables B-1 and B-2: BRSNS=Brassica napus ZEAMX=Zea mays TRZAS=Triticum aestivum

For assay [5], the system named is Triticum aestivum. Described as above. Also on record: key: 0: no positive effect; +: slight positive effect; ++: clear positive effect; +++: strong positive effect. The protocol:
as §2

For `COc1cc(OC)nc(CN(C(=O)c2c(C(F)F)nn(C)c2F)N(C)C)n1` [Compound A5-30], the “EF [%] (ZEAMX)” value in assay [1] (spray 25 g/ha) is >5%.
Consider `CN(C)N(Cc1ccccn1)C(=O)c1c(C(F)F)nn(C)c1Cl` [Compound A6-21, 5-Chloro-3-(difluoromethyl) —N′,N′,1-trimethyl-N-(pyridin-2-ylmethyl)-1H-pyrazole-4-carbohydrazide], for which, in assay [2], the “EF [%] (BRSNS)” value is >5%. In addition, in assay [1] (spray 250 g/ha), the “EF [%] (ZEAMX)” value is >5%.
Take `CN(C)N(Cc1ccccc1Cl)C(=O)c1ccsc1` [Compound B2-1]: the “EF [%] (TRZAS)” value in assay [3] (spray 250 g/ha) is recorded as >5%. The “EF [%] (ZEAMX)” value in assay [1] (spray 25 g/ha) is given as >5%.
For the compound `CN(C)N(Cc1ccccn1)C(=O)c1ccsc1` [Compound B2-21], in assay [3] (spray 25 g/ha), the “EF [%] (TRZAS)” value is >5%. Further, the “EF [%] (ZEAMX)” value in assay [1] (spray 250 g/ha) was >5%.
Take `CN(C)N(Cc1ccccc1C#N)C(=O)c1ccsc1` [Compound B2-61]: the “EF [%] (BRSNS)” value in assay [2] was >5%. In assay [3] (spray 20 g/ha), the “EF [%] (TRZAS)” value is on record as >5%. Also, the “EF [%] (ZEAMX)” value in assay [1] (spray 250 g/ha) is given as >5%.
In the case of `CN(C)N(Cc1ccccc1C#N)C(=O)c1ccco1` [Compound C1-61], in assay [1] (spray 250 g/ha), the “EF [%] (ZEAMX)” value is reported as >5%.
Regarding `Cc1nc(-c2cccnc2)sc1C(=O)N(Cc1ccccc1Cl)N(C)C` [Compound D1-1], in assay [4] (spray 25 g/ha), the “Effect (BRSNS)” value was “+”. For the same compound, the “Effect (TRZAS)” value in assay [5] (spray 250 g/ha) is given as “+”.
With `CN(C)N(Cc1cccc(Cl)c1Cl)C(=O)c1sc(Cl)nc1Cl` [Compound D6-4], in assay [4] (spray 25 g/ha), the “Effect (BRSNS)” value is on record as “+”. Also, the “Effect (TRZAS)” value in assay [5] (spray 25 g/ha) was “+”.
Turning to `CN(C)N(Cc1ccccc1F)C(=O)c1sc(Cl)nc1Cl` [Compound D6-11], the “Effect (BRSNS)” value in assay [4] (spray 250 g/ha) was “+”. Also, in assay [5] (spray 25 g/ha), the “Effect (TRZAS)” value was “+”.
With `CN(C)N(Cc1ccccc1C#N)C(=O)c1sc(Cl)nc1Cl` [Compound D6-61], the “Effect (BRSNS)” value in assay [4] (spray 250 g/ha) is “+”. Besides, the “Effect (TRZAS)” value in assay [5] (spray 25 g/ha) is recorded as “+”.
As to `Cc1nnsc1C(=O)N(Cc1cccc(Cl)c1Cl)N(C)C` [Compound F1-4], in assay [4] (spray 250 g/ha), the “Effect (BRSNS)” value was “+”. For the same compound, the “Effect (TRZAS)” value in assay [5] (spray 250 g/ha) is “+”.
Turning to `CC(C)c1nnsc1C(=O)N(Cc1ccccc1C#N)N(C)C` [Compound F2-61, 4-Isopropyl-N′,N′-dimethyl-N-(2-cyanobenzyl)-1,2,3-thiadiazole-5-carbohydrazide], the “Effect (BRSNS)” value in assay [4] (spray 250 g/ha) is “+”. For the same compound, the “Effect (TRZAS)” value in assay [5] (spray 250 g/ha) was “+”.
Consider `CN(C)N(Cc1ccccc1Cl)C(=O)c1ccns1` [Compound G8-1], for which, in assay [4] (spray 250 g/ha), the “Effect (BRSNS)” value is listed as “+”. Besides, the “Effect (TRZAS)” value in assay [5] (spray 250 g/ha) is listed as “+”.
Take `CN(C)N(Cc1ccc(Cl)nc1)C(=O)c1ccns1` [Compound G8-94]: the “Effect (BRSNS)” value in assay [4] (spray 25 g/ha) is “+”. In addition, the “Effect (TRZAS)” value in assay [5] (spray 25 g/ha) is reported as “++”.
For the compound `O=C(c1ccns1)N(Cc1cccc(Cl)c1Cl)N1CCCC1` [Compound G9-4], in assay [4] (spray 250 g/ha), the “Effect (BRSNS)” value is recorded as “++”. Besides, the “Effect (TRZAS)” value in assay [5] (spray 25 g/ha) is listed as “++”.
`O=C(c1ccns1)N(Cc1ccccc1F)N1CCCC1` [Compound G9-11]: the “Effect (BRSNS)” value in assay [4] (spray 250 g/ha) was “+”. The “Effect (TRZAS)” value in assay [5] (spray 250 g/ha) is listed as “+”.
Consider `O=C(c1ccns1)N(Cc1ncc(C(F)(F)F)cc1Cl)N1CCCC1` [Compound G9-36], for which, in assay [4] (spray 250 g/ha), the “Effect (BRSNS)” value is “++”. The “Effect (TRZAS)” value in assay [5] (spray 25 g/ha) was “+”.
For `CN(C)N(Cc1ccc(Cl)nc1)C(=O)c1cc(OCc2ccccc2)ns1` [Compound G10-94], in that order: “++” and “+”.
Turning to `Cc1c(OCc2ccccc2)nsc1C(=O)N(Cc1cccc(Cl)c1Cl)N(C)C` [Compound G11-4], in assay [4] (spray 250 g/ha), the “Effect (BRSNS)” value is “++”. Also, the “Effect (TRZAS)” value in assay [5] (spray 250 g/ha) is “+”.
Consider `Cc1c(OCc2ccccc2)nsc1C(=O)N(Cc1ccc(Cl)nc1)N(C)C` [Compound G11-94], for which, in assay [4] (spray 250 g/ha), the “Effect (BRSNS)” value is given as “+”. Moreover, the “Effect (TRZAS)” value in assay [5] (spray 250 g/ha) is on record as “+”.
For the compound `CN(C)N(Cc1ccc(Cl)cc1)C(=O)c1cnsn1` [Compound H1-3], the “Effect (BRSNS)” value in assay [4] (spray 25 g/ha) is on record as “+”. For the same compound, the “Effect (TRZAS)” value in assay [5] (spray 25 g/ha) is “+”.
Regarding `CN(C)N(Cc1ccccc1F)C(=O)c1cnsn1` [Compound H1-11], the “Effect (BRSNS)” value in assay [4] (spray 250 g/ha) is given as “+”. Further, the “Effect (TRZAS)” value in assay [5] (spray 250 g/ha) is recorded as “+”.
Consider `O=C(c1cnsn1)N(Cc1cccc(Cl)c1Cl)N1CCCC1` [Compound H2-4], for which the “Effect (BRSNS)” value in assay [4] (spray 250 g/ha) is recorded as “+”. The “Effect (TRZAS)” value in assay [5] (spray 250 g/ha) is given as “+”.
Take `O=C(c1cnsn1)N(Cc1ccccc1F)N1CCCC1` [Compound H2-11]: the “Effect (BRSNS)” value in assay [4] (spray 25 g/ha) is “+”. For the same compound, the “Effect (TRZAS)” value in assay [5] (spray 250 g/ha) was “+”.
In the case of `O=C(c1cnsn1)N(Cc1ccc(Cl)nc1)N1CCCC1` [Compound H2-94], the “Effect (BRSNS)” value in assay [4] (spray 250 g/ha) is given as “+”. Further, the “Effect (TRZAS)” value in assay [5] (spray 250 g/ha) is on record as “+”.
